Test results published in patent publication US10986838B2, “Herbicides” (SYNGENTA PARTICIPATIONS AG, priority 2016, dated 2021).

Experiments:
Type in all cases: in vivo
[1] = tested on: Abutilon theophrasti (ABUTH); experiment: Pre-emergence herbicidal activity (B1); conditions: Test 1b, 1000 g/ha, evaluated after 13 days, 5=total damage to plant, 0=no damage to plant
Protocol: (§1) B1 Pre-Emergence Herbicidal Activity Seeds of a variety of test species were sown in standard soil in pots: Triticum aestivium (TRZAW), Avena fatua (AVEFA), Alopecurus myosuroides (ALOMY), Echinochloa crus-galli (ECHCG), Lolium perenne (LOLPE), Zea Mays (ZEAMX), Abutilon theophrasti (ABUTH), Amaranthus retroflexus (AMARE) and Setaria faberi (SETFA). After cultivation for one day (pre-emergence) under controlled conditions in a glasshouse (at 24/16° C., day/night; 14 hours light; 65% humidity), the plants were sprayed with an aqueous spray solution derived from the formulation of the technical active ingredient in acetone/water (50:50) solution containing 0.5% Tween 20 (polyoxyethelyene sorbitan monolaurate, CAS RN 9005-64-5). The test plants were then grown in a glasshouse under controlled conditions (at 24/16° C., day/night; 14 hours light; 65% humidity) and watered twice daily. After 13 days, the test was evaluated (5=total damage to plant; 0=no damage to plant). Tables B1a and B1b Control of Weed Species by Compound of Formula (I) after Pre-Emergence Application

[2] = tested on: Amaranthus retroflexus (AMARE); experiment: Pre-emergence herbicidal activity (B1); conditions: Test 1b, 1000 g/ha, evaluated after 13 days, 5=total damage to plant, 0=no damage to plant
Protocol: as §1

[3] = tested on: Echinochloa crus-galli (ECHCG); experiment: Pre-emergence herbicidal activity (B1); conditions: Test 1b, 1000 g/ha, evaluated after 13 days, 5=total damage to plant, 0=no damage to plant
Protocol: as §1

Lolium perenne (LOLPE) [4] = experiment: Pre-emergence herbicidal activity (B1); conditions: Test 1b, 1000 g/ha, evaluated after 13 days, 5=total damage to plant, 0=no damage to plant
Protocol: as §1

Setaria faberi (SETFA) [5] = experiment: Pre-emergence herbicidal activity (B1); conditions: Test 1b, 1000 g/ha, evaluated after 13 days, 5=total damage to plant, 0=no damage to plant
Protocol: as §1

Zea Mays (ZEAMX) [6] = experiment: Pre-emergence herbicidal activity (B1); conditions: Test 1b, 1000 g/ha, evaluated after 13 days, 5=total damage to plant, 0=no damage to plant
Protocol: as §1

[7] = tested on: Abutilon theophrasti (ABUTH); experiment: Post-emergence herbicidal activity (B2); conditions: Test B2b, 1000 g/ha, evaluated after 13 days, 5=total damage to plant, 0=no damage to plant
Protocol: (§2) B2 Post-Emergence Herbicidal Activity Seeds of a variety of test species were sown in standard soil in pots: Triticum aestivium (TRZAW), Avena fatua (AVEFA), Alopecurus myosuroides (ALOMY), Echinochloa crus-galli (ECHCG), Lolium perenne (LOLPE), Zea Mays (ZEAMX), Abutilon theophrasti (ABUTH), Amaranthus retroflexus (AMARE) and Setaria faberi (SETFA). After 8 days cultivation (post-emergence) under controlled conditions in a glasshouse (at 24/16° C., day/night; 14 hours light; 65% humidity), the plants were sprayed with an aqueous spray solution derived from the formulation of the technical active ingredient in acetone/water (50:50) solution containing 0.5% Tween 20 (polyoxyethelyene sorbitan monolaurate, CAS RN 9005-64-5). The test plants were then grown in a glasshouse under controlled conditions (at 24/16° C., day/night; 14 hours light; 65% humidity) and watered twice daily. After 13 days, the test was evaluated (5=total damage to plant; 0=no damage to plant). Tables B2a and B2b Control of Weed Species by Compound of Formula (I) after Post-Emergence Application

[8] = tested on: Amaranthus retroflexus (AMARE); experiment: Post-emergence herbicidal activity (B2); conditions: Test B2b, 1000 g/ha, evaluated after 13 days, 5=total damage to plant, 0=no damage to plant
Protocol: as §2

[9] = tested on: Echinochloa crus-galli (ECHCG); experiment: Post-emergence herbicidal activity (B2); conditions: Test B2b, 1000 g/ha, evaluated after 13 days, 5=total damage to plant, 0=no damage to plant
Protocol: as §2

Lolium perenne (LOLPE) [10] = experiment: Post-emergence herbicidal activity (B2); conditions: Test B2b, 1000 g/ha, evaluated after 13 days, 5=total damage to plant, 0=no damage to plant
Protocol: as §2

Setaria faberi (SETFA) [11] = experiment: Post-emergence herbicidal activity (B2); conditions: Test B2b, 1000 g/ha, evaluated after 13 days, 5=total damage to plant, 0=no damage to plant
Protocol: as §2

Zea Mays (ZEAMX) [12] = experiment: Post-emergence herbicidal activity (B2); conditions: Test B2b, 1000 g/ha, evaluated after 13 days, 5=total damage to plant, 0=no damage to plant
Protocol: as §2

Row | SMILES | ABUTH damage score [1] | AMARE damage score [2] | ECHCG damage score [3] | LOLPE damage score (Lolium perenne (LOLPE) [4]) | SETFA damage score (Setaria faberi (SETFA) [5]) | ZEAMX damage score (Zea Mays (ZEAMX) [6]) | ABUTH damage score [7] | AMARE damage score [8] | ECHCG damage score [9] | LOLPE damage score (Lolium perenne (LOLPE) [10]) | SETFA damage score (Setaria faberi (SETFA) [11]) | ZEAMX damage score (Zea Mays (ZEAMX) [12])
1 | CNc1ccc(-c2cncc(F)c2)nc1C(F)(F)F [Compound A5] | 1 | 2 | 2 | 1 | 5 | 4 | 1 | 1 | 4 | 4 | 5 | 5
2 | CNc1ccc(-c2cncc(C)c2)nc1C(F)(F)F [Compound A6] | 1 | 1 | 0 | 0 | 1 | 0 | 0 | 0 | 1 | 1 | 3 | 1
3 | CNc1ccc(-c2cncc(C(F)(F)F)c2)nc1C(F)(F)F [Compound A7] | 1 | 1 | 0 | 0 | 3 | 0 | 0 | 1 | 1 | 1 | 3 | 1
4 | Cc1nc(-c2cncc(F)c2)ccc1N [Compound A8] | 0 | 0 | 2 | 1 | 5 | 3 | 0 | 0 | 4 | 3 | 5 | 5
5 | N#Cc1nc(-c2cncc(F)c2)ccc1N [Compound A9, 3-amino-6-(5-fluoro-3-pyridyl)pyridine-2-carbonitrile] | 1 | 1 | 4 | 0 | 4 | 2 | 1 | 1 | 4 | 1 | 4 | 4
6 | CNc1ccc(-c2cncc(OC)c2)nc1C(F)(F)F [Compound A10] | 1 | 1 | 0 | 0 | 2 | 1 | 0 | 1 | 1 | 1 | 3 | 2
7 | CNc1ccc(-c2cccnc2)nc1C(F)(F)F [Compound A11] | 1 | 1 | 2 | 1 | 5 | 1 | 1 | 1 | 4 | 4 | 5 | 2
8 | Cc1nc(-c2cncc(C(F)(F)F)c2)ccc1N [Compound A12] | 0 | 0 | 0 | 0 | 0 | 0 | 0 | 0 | 1 | 0 | 1 | 1
9 | COc1cncc(-c2ccc(N)c(C)n2)c1 [Compound A13] | 0 | 0 | 0 | 0 | 0 | 0 | 0 | 1 | 1 | 0 | 1 | 2
10 | Cc1nc(-c2cncnc2)ccc1N [Compound A14] | 0 | 0 | 1 | 1 | 2 | 1 | 0 | 2 | 2 | 1 | 3 | 2
11 | CNc1ccc(-c2cncnc2)nc1C [Compound A15] | 0 | 0 | 1 | 0 | 1 | 1 | 0 | 1 | 2 | 1 | 2 | 1
12 | CC(Nc1ccc(-c2cncc(F)c2)nc1C(F)(F)F)c1cccc(C(F)(F)F)c1 (stereo not drawn) [Compound A16] | 0 | 0 | 1 | 0 | 4 | 1 | 0 | 0 | 3 | 1 | 5 | 3
13 | CC(Nc1ccc(-c2cncc(F)c2)nc1C(F)(F)F)c1ccccc1 (stereo not drawn) [Compound A17] | 0 | 0 | 0 | 0 | 2 | 0 | 0 | 0 | 4 | 1 | 4 | 4
14 | Fc1cncc(-c2ccc(NCc3cccc(Cl)c3)c(C(F)(F)F)n2)c1 [Compound A18] | 0 | 0 | 2 | 0 | 4 | 4 | 0 | 0 | 3 | 2 | 5 | 5
15 | COC(=O)C(C)Nc1ccc(-c2cncc(F)c2)nc1C(F)(F)F (stereo not drawn) [Compound A19] | 0 | 1 | 3 | 2 | 4 | 5 | 1 | 2 | 4 | 3 | 5 | 5
16 | Cc1ccc(CNc2ccc(-c3cncc(F)c3)nc2C(F)(F)F)cc1 [Compound A20] | 0 | 0 | 2 | 0 | 5 | 3 | 0 | 0 | 3 | 2 | 5 | 5
